One test addresses T1, rat-MOR (Rattus norvegicus, UniProt P33535).
T1 construct: expressed in transfected cells
Kind of test: Radioligand competition binding, [3H]-DPN, HEK293 membranes, MOR. Particulars: [3H]-DPN displacement; means ± SEM of three experiments in duplicate; read-out: Ki (μM) ± SEM MOR. The method, then: All synthesized compounds were tested in vitro by radioligand competition binding using [^3H]-diprenorphine ([^3H]-DPN) to measure the affinity for opioid receptor subtypes in membranes from HEK293 cells stably expressing either MOR, DOR, or KOR, as previously described.
Confluent monolayers of HEK293 (human embryonic kidney 293) cells stably expressing rat-MOR, rat-DOR, or human-KOR were harvested, collected by centrifugation at 1500 rpm for 5 min, and washed once with phosphate-buffered saline (PBS) at pH 7.5. Membranes from cell pellets were carried out as described by Georgoussi and Zioudrou (1993) and Papakonstantinou et al. (2015). Briefly, cell pellets were resuspended in ice-cold membrane buffer (10 mM Tris-HCl, pH 7.5 and 0.1 mM EDTA), homogenized, and centrifuged at 2,000 g for 3 min at 4 °C. Supernatants were further centrifuged at 45,000 rpm for 30 min at 4 °C. The membrane pellet was resuspended in ice-cold membrane buffer at a protein concentration of approximately 1 mg/mL and stored in aliquots at −70 °C. Protein concentration was determined according to Bradford assay.
In the experiments designed to define compound affinity and selectivity for MOR, DOR, and KOR, membranes expressing each of these opioid receptors ([…]) were incubated at 30 °C for 45 min in buffer containing 50 mM Tris-HCl, pH 7.5, 100 mM NaCl, and 10 mM MgCl2 as described by Georgoussi et al. […] The ability of compounds 10–16 to displace [^3H]-DPN (3.75 nM) binding to the opioid receptors was assessed as described by Morou And Georgoussi (2005). Non-specific binding was measured in the presence of […] Naloxone. The reaction was stopped by rapid filtration and three washes in ice-cold 50 mM Tris-HCl, pH 7.4, through GF/C filters (Whatman, Maidstone, UK) using an automated cell harvester (Brandel Inc., Gaithersburg, MD, USA). The radioactivity was measured by liquid scintillation counting (Liquid Scintillation Analyzer, Packard).
(§1) Analysis of the binding data was performed using the Origin 7.5 software (OriginLab Corporation, Northampton, MA, USA). In calcium mobilization experiments, data were analyzed by non-linear curve fitting equation, using GraphPad 5.0 software. […] Ligand efficacy was expressed as intrinsic activity (α), calculated as the ratio between the Emax of the ligand and that of the respective standards. Calcium mobilization data were expressed as FIU (fluorescence intensity units) in percent, over the baseline. Agonist potencies are given as pEC50 (the negative logarithm to base 10 of the molar concentration of an agonist that produces 50% of the maximal possible effect, Emax). Concentration response curves to agonists were fitted with the following equation: Effect = baseline + (Emax − baseline)/(1+10^(LogEC50 − X) ∗ HillSlope) where X is the agonist concentration.
In general terms: Displacement assays read how much labelled ligand stays bound in the presence of the test substance.

In a further test the target is human-KOR (Homo sapiens, UniProt P41145). Put plainly: Calcium mobilization assay, CHO-KOR cells expressing Gαqi5. Format: cell-based. Further details: expressed in transfected cells; gift of Dr. Larry Toll (SRI International); infected with a retrovirus for Gαqi5. Particulars: agonist mode; Inactive = inactive at 10 μM; crc incomplete = incomplete concentration response curve at 10 μM; listed as LP1 (1). The procedure: The pharmacological characterization of LP1 derivatives 2 and 10–16 was performed by calcium mobilization assay (Table 2). This procedure was preliminarily validated through a series of experiments where the effects of DPDPE, dermorphin, and dynorphin A were assessed in CHO cells expressing the human recombinant opioid receptors and Gαqi5 or GαqG66Di5 chimeric proteins.
human-KOR, sequence (P41145 whole entry): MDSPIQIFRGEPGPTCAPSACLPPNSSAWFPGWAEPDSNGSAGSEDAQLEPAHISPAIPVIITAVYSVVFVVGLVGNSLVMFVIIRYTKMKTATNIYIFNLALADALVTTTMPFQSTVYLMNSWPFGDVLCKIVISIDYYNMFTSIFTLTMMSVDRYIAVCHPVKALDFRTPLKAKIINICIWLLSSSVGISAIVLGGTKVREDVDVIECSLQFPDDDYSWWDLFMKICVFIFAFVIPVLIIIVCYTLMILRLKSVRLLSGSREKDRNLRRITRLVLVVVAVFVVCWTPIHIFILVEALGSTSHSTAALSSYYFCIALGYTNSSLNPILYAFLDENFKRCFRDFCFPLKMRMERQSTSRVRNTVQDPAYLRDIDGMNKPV
Chinese hamster ovary (CHO) cells expressing the recombinant human MOR and KOR (CHO^MOR and CHO^KOR) were kindly provided by Dr. Larry Toll (SRI International, Menlo Park, CA, USA), and CHO cells expressing the recombinant human DOR (CHO^DOR) were supplied by Dr. Eva Varga (Department of Medical Pharmacology, The University of Arizona, Tucson, AZ, USA). CHO cells lines permanently coexpressing the opioid receptors and the C-terminally modified Gαqi5 were prepared by infecting the CHO lines described above with a recombinant retrovirus expressing the chimeric α subunit and the hygromycin resistance gene. Similarly, CHO cells lines permanently coexpressing DOR and the C-terminally modified GαqG66Di5 were prepared by infecting the CHO lines described above with a recombinant retrovirus expressing the chimeric α subunit and the hygromycin resistance gene. Polyclonal cell lines were generated using the pantropic retroviral expression system form BD-Clontech, as described previously. Stable lines were selected under hygromycin B (100 μg/mL) and geneticin (600 μg/mL) for 2–3 weeks after the infection.
CHO cells, expressing human opioid receptors and the Gαqi5 protein, and CHODOR, expressing the GαqG66Di5 protein, were maintained in culture medium consisting of Dulbecco minimum essential medium (DMEM) and Ham F-12 (1:1) (50/50) supplemented with 10% fetal calf serum (FCS), L-glutamine (2 mM), geneticin (200 μg/mL; G418), hygromycin B (100 μg/mL) at 37 °C in 5% CO2 humidified air. When confluence was reached (3–4 days), cells were subcultured as required using trypsin/EDTA, and used for experimentation. The different cell lines were seeded at a density of […] into black 96-well, clear-bottomed plates. After 24 h incubation, the cells were loaded with medium supplemented with 2.5 mM probenecid, 3 μM of the calcium sensitive fluorescent dye Fluo-4 AM, and 0.01% pluronic acid, for 30 min at 37 °C. Afterwards, the loading solution was aspirated and 100 μL/well of assay buffer—HBSS supplemented with 20 mM HEPES, 2.5 mM probenecid and 500 μM Brilliant Black (Aldrich, St. Louis, MO, USA)—was added. Serial dilutions of ligands for experimental use were made in HBSS/HEPES (20 mM) buffer (containing 0.005% BSA fraction V). After placing both plates (cell culture and compound plate) into the FlexStation II (Molecular Device, Union City, San Jose, CA 94587, USA), fluorescence changes were measured at room temperature. Online additions were carried out in a volume of 50 μL/well. Antagonists were incubated 15 min before the addition of the agonist. Maximum change in fluorescence, expressed in percent of baseline fluorescence, was used to determine agonist response.
as §1, with “concentration. […]” for “concentration.”
A general note: Calcium flux is commonly read through the fluorescence of an indicator in the cells.

T1 sequence (P33535 whole entry): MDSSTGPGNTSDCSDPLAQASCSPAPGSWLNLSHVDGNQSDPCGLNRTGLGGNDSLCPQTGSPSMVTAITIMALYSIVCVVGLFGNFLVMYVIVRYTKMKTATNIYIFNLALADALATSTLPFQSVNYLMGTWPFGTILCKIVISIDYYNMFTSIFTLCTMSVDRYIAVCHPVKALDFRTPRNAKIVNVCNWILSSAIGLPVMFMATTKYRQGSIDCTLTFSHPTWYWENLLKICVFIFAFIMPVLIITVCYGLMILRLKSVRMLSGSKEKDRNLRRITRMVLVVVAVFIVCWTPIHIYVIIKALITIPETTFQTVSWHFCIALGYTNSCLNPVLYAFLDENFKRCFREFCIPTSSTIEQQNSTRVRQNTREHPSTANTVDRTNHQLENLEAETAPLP

On to `C[C@H]1[C@H]2Cc3ccc(O)cc3[C@]1(C)CCN2CCC(=O)Nc1ccccc1` [LP1, 3-[(2R,6R,11R)-8-hydroxy-6,11-dimethyl-1,4,5,6-tetrahydro-2,6-methano-3-benzazocin-3(2H)-yl]-N-phenylpropanamide, reference compound], for which, on rat-MOR, the Ki was determined as 0.049 ± 0.015 µM. The “KOR pEC50 (CL95%)” value on human-KOR is recorded as “crc incomplete ^d”.

Broadly, the Ki is a dissociation constant, usually derived from enzyme kinetics or from competition with a known ligand.

These data come from paper PMC6027146, “Synthesis and Structure-Activity Relationships of (−)-cis-N-Normetazocine-Based LP1 Derivatives” (Pharmaceuticals, 2018).
